Measured values as given in patent publication US20230381190A1, “Methods and Treatment for Complex Lymphatic Malformations” (priority 2022, published 2023).
Values joined by “and” are separate entries in the source; they are usually repeats but may differ in a detail not shown here. Equal values may be shown once. Read-outs that look alike come from different tables or passages of the source.

What was measured:
[1] = Modeling and simulation of human PK for dose selection; details: total daily dose 1.0 mg, divided every 12 hours, 50th percentile
Excerpt: The doses proposed for this study were selected after modeling and simulation of the human PK of CERC-006 using data reported by Mateo et al (Mateo J, Olmos D, Dumez H, et al. A first in man, dose-finding study of the mTORC1/mTORC2 inhibitor OSI-027 in patients with advanced solid malignancies. Br J Cancer. 2016114(8):889-896) and comparing the PK/PD response for sirolimus in patients with complicated vascular anomalies published by Adams et al (Adams et al, Pediatrics (2016)) and Mizuno et al (Mizuno T, Emoto C, Fukuda T, et al. Model-based precision dosing of sirolimus in pediatric patients with vascular anomalies. Eur J Pharm Sci. 2017; 109S:S124-S131). The goal was to estimate doses that would produce effective trough plasma concentrations of CERC-006 in relation to pharmacological target potency (mTOR complex inhibition) using the PK/PD response achieved by sirolimus in this patient population as a benchmark. […] The additional dose proposed, 2.0 mg/day, is necessary to ensure potential therapeutic benefit while preserving safety and providing a range of plasma concentrations to guide future PK/PD modeling efforts.

[2] = cited from earlier work
[3] = cited from earlier work; remark: listed apart in the source
[4] = linear extrapolation from simulated PK profile, listed as CERC-006
[5] = regardless of relationship, 123 subjects

For `COc1cccc2cc(-c3nc([C@H]4CC[C@H](C(=O)O)CC4)n4ncnc(N)c34)[nH]c12` [AVTX-006, trans-4-[4-Amino-5-(7-methoxyl-1H-indol-2-yl)-imidazo[5,1-f][1,2,4]triazine-7-yl]-cyclohexanecarboxylic acid], the “Free trough concentration above the in vitro IC50 for mTOR complex inhibition” value [1] was “approximately 2 fold”, the “Free trough plasma concentration” value [1, 4] was ~4 ng/mL and ~10 nM and the “Total trough plasma concentration” value [1, 4] was “approximately 27 ng/mL and ~66 nM”. The “Subjects with TEAEs considered drug regimen-related” value ([2]; 92 of 123 subjects, by the investigator) was 74.8%, the “Drug regimen related TEAE anorexia” value ([2]; 123 subjects) was 21.1% and the “Drug regimen related TEAE fatigue” value ([2]; 123 subjects) was 44.7%. For the same compound, the “Drug regimen related TEAE increased blood creatinine” value ([2]; 123 subjects) was 26.0%, the “Drug regimen related TEAE nausea” value ([2]; 123 subjects) was 40.7% and the “Drug regimen related TEAE vomiting” value ([2]; 123 subjects) was 18.7%. The “Subjects with related SAEs” value ([2]; Fifteen subjects) was 12.2%, the “Subjects with serious adverse events (SAEs)” value ([2]; Fifty of 123 subjects treated) was 40.6% and the “Maximum tolerated dose (MTD)” value ([2]; S1: once daily for 3 consecutive days every 7 days) was 120 mg. The “Deaths, subjects” value ([2]; S1) was 48.2%, the “Maximum tolerated dose (MTD)” value ([2]; S2: once weekly, escalation stopped at 240 mg every week) was “not reached” and the “Deaths, subjects” value ([2]; S2) was 25.6%. For the same compound, the “Maximum tolerated dose (MTD)” value ([2]; S3: once daily dosing) was 30 mg, the “Dose at which renal toxicity was dose limiting” value ([2]; S3: once daily) was 40 mg and the “Deaths, subjects” value ([2]; S3) was 14.3%. For the same compound, the “Deaths considered drug related” value ([2]; all schedules) was “None”, the “Observed dose limiting toxicities (DLTs)” value ([2]; all schedules) was “fatigue, renal, and cardiac events” and the “Related SAE anorexia” value ([2]; in vivo) was 1 subject. The “Related SAE blood creatinine increased” value ([2]; in vivo) was 2 subjects, the “Related SAE bone pain” value ([2]; in vivo) was 1 subject and the “Related SAE cardiac failure congestive” value ([2]; in vivo) was 1 subject. For the same compound, the “Related SAE cataract subcapsular” value ([2]; in vivo) was 1 subject, the “Related SAE diarrhea” value ([2]; in vivo) was 1 subject and the “Related SAE fatigue” value ([2]; in vivo) was 3 subjects. For the same compound, the “Related SAE myocardial infarction” value ([2]; in vivo) was 1 subject, the “Related SAE nausea” value ([2]; in vivo) was 3 subjects and the “Related SAE pneumonia” value ([2]; in vivo) was 1 subject. The “Related SAE renal failure” value ([2]; in vivo) was 1 subject, the “Related SAE stress cardiomyopathy” value ([2]; in vivo) was 1 subject and the “Related SAE supraventricular tachycardia” value ([2]; in vivo) was 1 subject. For the same compound, the “Related SAE urticaria” value ([2]; in vivo) was 1 subject, the “Related SAE vomiting” value ([2]; in vivo) was 2 subjects and the “TEAE abdominal pain upper, subjects” value [2, 5] was 10.6%. The “TEAE abdominal pain, subjects” value [2, 5] was 17.1%, the “TEAE anemia, subjects” value [2, 5] was 13.8% and the “TEAE anorexia, subjects” value [2, 5] was 40.7%. The “TEAE back pain, subjects” value [2, 5] was 14.6%, the “TEAE blood creatinine increased, subjects” value [2, 5] was 28.5% and the “TEAE constipation, subjects” value [2, 5] was 25.2%. For the same compound, the “TEAE cough, subjects” value [2, 5] was 14.6%, the “TEAE diarrhea, subjects” value [2, 5] was 22.8% and the “TEAE dyspnea, subjects” value [2, 5] was 17.1%. For the same compound, the “TEAE fatigue, subjects” value [2, 5] was 65.0%, the “TEAE headache, subjects” value [2, 5] was 14.6% and the “TEAE hypokalemia, subjects” value [2, 5] was 12.2%. For the same compound, the “TEAE nausea, subjects” value [2, 5] was 60.2%, the “TEAE vomiting, subjects” value [2, 5] was 33.3% and the “TEAE weight decreased, subjects” value [2, 5] was 13.8%. The “Estimated terminal half-life (t1/2)” value ([3]; 240 mg dose in S2 (weekly dose schedule)) was “approximately 14 hours”, the “Dose proportionality of area under the curve (AUC)” value ([3]; S1 and S2, slope close to 1) was “dose proportional” and the “Dose proportionality of increases in Cmax” value ([3]; S1 and S3) was “apparently proportional to dose”.
